Reference: US20260265199A1, “CRYSTALLINE FORMS OF (R)-2-AMINO-5-(4-(2-(3,5-DIFLUOROPHENYL)-2-HYDROXYACETAMIDO)-2-METHYLPHENYL)-N-ISOPROPYLNICOTINAMIDE AND METHODS FOR USING THE SAME” (HIBERCELL, INC., priority 2023, published 2026)
Entries after “also recorded” stand apart in the source; their conditions may differ. Read-outs that look alike come from different tables or passages of the source.

Experiments:
Type in all cases: physicochemical
[1] = Relative humidity stressing of Form D; conditions: ambient
[2] = Dynamic vapor sorption (5% to 95% RH, Example 26 method)
Experimental: Automated vapor sorption (VS) data were collected on a Surface Measurement System DVS Intrinsic instrument, or a VTI SGA-100 instrument. Samples were not dried prior to analysis. Sorption and desorption data were collected over a range from 5% to 95% RH at 10% RH increments under a nitrogen purge. The equilibrium criterion used for analysis was less than 0.0100% weight change in 5 minutes with a maximum equilibration time of 3 hours. Data were not corrected for the initial moisture content of the samples.

[3] = Solubility study of Form A of the compound of formula (I) in solvents (aliquot addition, visual); conditions: thermodynamic from solid, room temperature, read-out: Approximate Solubility
Experimental: A solubility study of Form A in various solvent systems was conducted according to the following protocol: aliquots of the test solvent systems were added to weighed samples of Form A, prepared according to Example 27, at room temperature. The resulting mixtures were sonicated between solvent additions to facilitate dissolution. Complete dissolution of the test material was determined visually. The solubility was estimated based on the total solvent used to provide complete dissolution.

[4] = Water activity study of Form A of the compound of formula (I); conditions: for Result (XRPD of solids): ambient; for Solid form (XRPD) after storage in solvent mixture: ambient conditions
Experimental: The water activity study was conducted using the following protocol: solutions were prepared by adding a sufficient amount of Form A, prepared according to Example 27, to a given solvent mixture such that excess solids were present. The mixture was then agitated for a predetermined period of time (Table 31) in a sealed vial under ambient conditions. After agitation, the solids were isolated for analysis and characterized using XRPD.

Structure (SMILES): Cc1cc(NC(=O)[C@H](O)c2cc(F)cc(F)c2)ccc1-c1cnc(N)c(C(=O)NC(C)C)c1 [Form D, (R)-2-amino-5-(4-(2-(3,5-difluorophenyl)-2-hydroxyacetamido)-2-methylphenyl)-N-isopropylnicotinamide]
- Observation ([1]; 75% RH, 4 days): Free flowing
- Result (XRPD form) ([1]; 75% RH, 4 days): remained physically stable; also recorded: Form D
- Observation ([1]; 97% RH, 20 days): Free flowing
- Result (XRPD form) ([1]; 97% RH, 20 days): no phase changed had occurred; also recorded: remained physically stable; also recorded: Form D
- Solid form recovered from the DVS experiment (XRPD) [2]: remained as Form D
- Weight gain and loss through the sorption/desorption cycle (DVS) ([2]; 5 to 95% RH): approximately 1.9%
- Hygroscopicity (DVS) ([2]; from 5 to 95% RH): limited hygroscopicity

Structure (SMILES): Cc1cc(NC(=O)[C@H](O)c2cc(F)cc(F)c2)ccc1-c1cnc(N)c(C(=O)NC(C)C)c1 [Form A of the compound of formula (I), (R)-2-amino-5-(4-(2-(3,5-difluorophenyl)-2-hydroxyacetamido)-2-methylphenyl)-N-isopropylnicotinamide]
- solubility ([3]; organic solvent or mixture, acetone): > 115 mg/mL
- solubility ([3]; organic solvent or mixture, acetonitrile): 12 mg/mL
- solubility ([3]; organic solvent or mixture, chloroform): < 3 mg/mL
- solubility ([3]; organic solvent or mixture, diethyl ether): < 2 mg/mL
- solubility ([3]; organic solvent or mixture, ethanol): 49 mg/mL
- solubility ([3]; organic solvent or mixture, ethyl acetate): 26 mg/mL
- solubility ([3]; organic solvent or mixture, heptane): < 3 mg/mL
- solubility ([3]; organic solvent or mixture, isopropyl alcohol): 14 mg/mL
- solubility ([3]; organic solvent or mixture, methanol): 103 mg/mL
- solubility ([3]; organic solvent or mixture, tetrahydrofuran): > 150 mg/mL
- solubility ([3]; organic solvent or mixture, toluene): < 4 mg/mL
- solubility ([3]; water): < 3 mg/mL
- Result (XRPD of solids) ([4]; IPA/water 90:10 v/v, 0.67 aw, 27 days): Form H
- Result (XRPD of solids) ([4]; MeCN/water 92:8 v/v, 0.82 aw, 4 days): Form C
- Solid form (XRPD) after storage in solvent mixture ([4]; acetonitrile/water (92:8 v/v), four days): Form C
- Solid form (XRPD) after storage in solvent mixture ([4]; isopropanol/water (90:10 v/v), 27 days): Form H
- Solid form (XRPD) after storage in solvent mixture ([4]; isopropanol/water (94:6 v/v), four days): mixture of Form A and Form H
- Result (XRPD of solids) ([4]; water/acetone 80:20 v/v, 0.96 aw, 4 days): Form A*
- Solid form (XRPD) after storage in solvent mixture ([4]; water/acetone (80:20 v/v), four days): Form A
